Drawing on patent US9034882B2, “Inhibitors of human immunodeficiency virus replication” (priority 2012, dated 2015), this text covers EC50 for 11 molecules.

Structures are written as SMILES. Like-named read-outs stand apart in the source and are kept apart here.

The subject of the test is recombinant NL-Rluc virus. Nature of the test: Inhibition of HIV replication (NL-RLuc luciferase reporter virus in MT-2 cells). The conditions noted are these: Human immunodeficiency virus 1, MT2, 120 h. The format is cell-based. A general note: Reporter assays use an easily measured gene product as a stand-in for the process of interest.

Turning to `Cc1nc2cc(-c3ccc4c(c3)CCCC4)nn2c(N2CCC(C)(C)CC2)c1[C@H](OC(C)(C)C)C(=O)O` [Example 33, (S)-2-(tert-Butoxy)-2-(7-(4,4-dimethylpiperidin-1-yl)-5-methyl-2-(5,6,7,8-tetrahydronaphthalen-2-yl)pyrazolo[1,5-a]pyrimidin-6-yl)acetic acid], the EC50 (read-out: Activity) was 0.1 to 1 µM. On the same count and under the same terms, the value for `Cc1nc2cc(-c3ccc4c(c3)CCCC4)nn2c(N2CCC(C)CC2)c1[C@H](OC(C)(C)C)C(=O)O` [Example 34, (S)-2-(tert-Butoxy)-2-(5-methyl-7-(4-methylpiperidin-1-yl)-2-(5,6,7,8-tetrahydronaphthalen-2-yl)pyrazolo[1,5-a]pyrimidin-6-yl)acetic acid] was 0.1 to 1 µM. As for `Cc1nc2cc(-c3cccc(-c4ccccc4)c3)nn2c(N2CCC(C)(C)CC2)c1C(OC(C)(C)C)C(=O)O` (stereo not drawn) [Example 35, 2-(2-([1,1′-Biphenyl]-3-yl)-7-(4,4-dimethylpiperidin-1-yl)-5-methylpyrazolo[1,5-a]pyrimidin-6-yl)-2-(tert-butoxy)acetic acid], the EC50 is 0.1 to 1 µM (read-out: Activity) and 0.13 µM (read-out: EC50 μM). As to `Cc1nc2c(-c3cccc(Cl)c3)cnn2c(N2CCC(C)(C)CC2)c1C(OC(C)(C)C)C(=O)O` (stereo not drawn) [Example 36, 2-(tert-butoxy)-2-(3-(3-chlorophenyl)-7-(4,4-dimethylpiperidin-1-yl)-5-pyrazolo[1,5a]pyrimidin-6-yl)acetic acid], the EC50 (read-out: Activity) fell in the range of 0.1 to 1 µM. For the molecule `Cc1nc2nc(-c3ccccc3)nn2c(N2CCC(C)(C)CC2)c1C(OC(C)(C)C)C(=O)O` (stereo not drawn) [Example 37, 2-tert-Butoxy-2-(7-(4,4-dimethylpiperidin-1-yl)-5-methyl-2-phenyl-[1,2,4]triazolo[1,5-a]pyrimidin-6-yl)acetic acid], the EC50 is, setting by setting: (read-out: Activity) 0.1 to 1 µM; (read-out: EC50 μM) 0.24 µM. As to `Cc1nc2nc(-c3ccccc3)nn2c(N2CCC(C)CC2)c1C(OC(C)(C)C)C(=O)O` (stereo not drawn) [Example 38, 2-tert-Butoxy-2-(5-methyl-7-(4-methylpiperidin-1-yl)-2-phenyl-[1,2,4]triazolo[1,5-a]pyrimidin-6-yl)acetic acid], the EC50 (read-out: Activity) was over 1 µM. On the same count and under the same terms, the value for `Cc1nc2nc(-c3ccccc3)nn2c(N2CC[C@H]3CCCC[C@H]3C2)c1C(OC(C)(C)C)C(=O)O` (stereo partly drawn) [Example 39, 2-(tert-Butoxy)-2-(5-methyl-7-((4aR,8aR)-octahydroisoquinolin-2(1H)-yl)-2-phenyl-[1,2,4]triazolo[1,5-a]pyrimidin-6-yl)acetic acid] was 0.1 to 1 µM. On the same count and under the same terms, the value for `Cc1nc2nc(-c3ccccc3)nn2c(N2CC[C@H]3CCCC[C@@H]3C2)c1C(OC(C)(C)C)C(=O)O` (stereo partly drawn) [Example 40, 2-(tert-Butoxy)-2-(5-methyl-7-((4aR,8aS)-octahydroisoquinolin-2(1H)-yl)-2-phenyl-[1,2,4]triazolo[1,5-a]pyrimidin-6-yl)acetic acid] was over 1 µM.

On to `Cc1nc2nc(-c3ccccc3)nn2c(N2CCCC(C)(C)C2)c1C(OC(C)(C)C)C(=O)O` (stereo not drawn) [Example 41, 2-(tert-Butoxy)-2-(7-(3,3-dimethylpiperidin-1-yl)-5-methyl-2-phenyl-[1,2,4]triazolo[1,5-a]pyrimidin-6-yl)acetic acid], for which the EC50 (read-out: Activity) was under 0.1 µM.

Turning to `Cc1nc2nc(-c3cccc(-c4ccccc4)c3)nn2c(N2CCC(C)(C)CC2)c1[C@H](OC(C)(C)C)C(=O)O` [Example 42, (S)-2-(2-([1,1′-Biphenyl]-3-yl)-7-(4,4-dimethylpiperidin-1-yl)-5-methyl-[1,2,4]triazolo[1,5-a]pyrimidin-6-yl)-2-(tert-butoxy)acetic acid], the EC50 by setting is: (read-out: Activity) under 0.1 µM; (read-out: EC50 μM) 0.05 µM. For `Cc1nc2cc(-c3cccc(-c4ccccc4)c3)nn2c(N2[C@@H]3CCC[C@H]2CC3)c1[C@H](OC(C)(C)C)C(=O)O` [Example 43, (S)-2-(2-([1,1′-Biphenyl]-3-yl)-7-((1R,5S)-8-azabicyclo[3.2.1]octan-8-yl)-5-methylpyrazolo[1,5-a]pyrimidin-6-yl)-2-(tert-butoxy)acetic acid] the same measures were 0.1 to 1 µM and 0.78 µM.
